Patent US5208223A, “Phosphocholine derivative inhibitors of phospholipase A2” (American Cyanamid Company, priority 1992, dated 1993)
“And” between values parts separate entries of the source, which are not always exact repeats. Identical values can stand only once. Counter-ions that a name gives are not always drawn.

Experiments:
Format in all cases: biochemical
[1] = molecular target: T1, porcine pancreatic PLA2 (Sus scrofa, UniProt P00592); test: MHPLA2 assay: in vitro porcine pancreatic phospholipase A2, mixed micelle design, [s]=10 μm; settings: for inhibition at 20 µg/mL / % Inh.: subs. con. 10; for inhibition at 50 µg/mL: dose 50 μ/ml
T1 construct: purchased Sigma
T1 sequence (P00592 23-146): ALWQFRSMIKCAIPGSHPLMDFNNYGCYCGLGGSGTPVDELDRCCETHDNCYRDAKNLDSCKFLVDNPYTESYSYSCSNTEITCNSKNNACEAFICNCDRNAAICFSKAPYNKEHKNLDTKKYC
Method in brief: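 Compounds dried with 10 μM 1-stearyl-2-[3H]-arachidonyl-PC substrate in mixed micelles (0.1M tris-HCl pH 9.0, 10 mM CaCl2, 10 mM Na taurocholate). Reaction started by adding enzyme and run 15 min at 37°C, then stopped with TCA. Released [3H]-arachidonate separated by TLC or column and counted by scintillation.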

[2] = molecular target: T1, porcine pancreatic PLA2; test: PLA2 assay: in vitro porcine pancreatic phospholipase A2, preincubation of drug+enzyme, substrate 2 nM; settings: subs. con. 2
Method in brief: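 Porcine pancreatic PLA2 acting on 2 nM radiolabeled arachidonyl-phosphatidylcholine in mixed micelles (0.1 M Tris-HCl pH 9.0, 10 mM CaCl2, 10 mM Na taurocholate), 15 min at 37 °C with preincubation of drug and enzyme. Stopped with TCA; released 3H-arachidonate extracted, separated by TLC or column, counted by scintillation.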

[3] = molecular target: T1, porcine pancreatic PLA2; test: MPLA2 assay: in vitro porcine pancreatic phospholipase A2, mixed micelle design, substrate 2 nM
Protocol: (§1) Phospholipase A2 activity was measured by a radiochemical assay in which labeled synthetic phosphatidylcholine substrate is converted by porcine pancreatic PLA2 to free radiolabeled arachidonate and lyso PC. Radiolabeled arachidonate is extracted from the reaction mixture and separated from unreacted substrate by column chromatography or TLC. Radioactivity (cpm) in samples is quantitated by liquid scintillation counting. Specific details are as follows:
(§2) Labeled substrate(1-stearyl-2-^3 H-arachidonylphosphatidylcholine; Amersham, sp. act. 84 (uCi/mmole, 0.025 to 0.2 uCi/assay tube and unlabeled substrates (Avanti), in sufficient quantity to give 20,000 cpm to 50,000 cpm and 10 μM to 1,000 μM final concentration/assay tube are dried under a stream of nitrogen. The PLA2 and mPLA2 assays utilized a […] substrate concentration. The mHPLA2 and HPLA2 assays (vida infra) utilized a 10 μM substrate concentration and the SmPLA2 assay utilized a substrate concentration ranging from 100 to 1000 μm. The substrate is then redissolved in 0.1M tris-HCl buffer, pH 9.0 containing 10 mM CaCl2 and 10 mM Na taurocholate detergent. The mixture is sonicated in a Kontes Sonifier to yield a homogeneous dispersion. The "mixed" micellar substrate is clear. An aliquot is reserved for a cpm count (total substrate). The total reaction volume is 500 μL; siliconized glassware or plasticware is used throughout. Enzyme (Sigma, sp. act.>690 U/mg protein and preferably 900 U/mg protein) is diluted 1:750 or 1:1000 in 0.1M tris-HCl buffer, pH 9.0 (without Ca^++ and detergent). Enzyme dilution depends on substrate concentration and required enzyme concentration.
(§3) The substrate in buffer is kept on ice until the reaction is started. The reaction is started by adding 10 μL of diluted enzyme solution to 490 μL of micellar substrate solution. Samples are incubated in a 37° C. water bath for 15 minutes with gentle mixing. The reaction is terminated by the addition of 100 μL of 1M fresh trichloroacetic acid (TCA) solution and chilling the tubes on ice for 30 minutes.
(§4) Samples (600 μL) are extracted with 3 ml CHCl3 /MeOH (2:1) for thin layer chromatography or in hexane/ether (9:1) for column chromatography. The phases are separated by gentle centrifugation at 700 rpm×5'. The organic phase is recovered.
(§5) Labeled arachidonate extracted with CHCl3 /MeOH is separated on silica gel G TLC plates (Analtech). Twenty μL of a 2 mg/ml internal standard solution of arachidonic acid (Sigma) is combined with 2-3 ml of the organic phase. The entire mixture is dried under nitrogen and redissolved in 50 μL of CHCl3 /MeOH (2:1). A 20 μL sample is counted in 10 ml of Beckman Redi-solv HP and spotted on silica gel G plates. The solvent system used to develop the plate is CHCl3 /MeOH/13.5N NH3 /H2 O (70:30:4:1). Plates are developed in a glass chamber for 1-11/2 hours, air dried, and the spots visualized in an iodine vapor chamber. Standards of phosphatidylcholine, lyso PC, and arachidonic acid (Sigma) are made as 2 mg/ml stocks in CHCl3 /MeOH (2:1) and spotted on plates. Spots corresponding to arachidonate and phospholipid are scraped and counted in 10 ml Beckman Redi-Solv HP scintillation fluid.
(§6) Samples are extracted with hexane/ether and the upper organic phase recovered. An aliquot is applied to a Silicar CC4 (Malincrodt) column. Columns are prepared using 1 ml of a 1:1 slurry of silicar CC4 in hexane/ether in a Pasteur pipet (approx. 2 cm height). Columns are rinsed with 500 μL of hexane/ether before adding the sample (300-600 μL) to the column. Columns are eluted with a total of 6 ml of hexane/ether. The 6 ml sample is counted in 10 ml of Beckman Redi-Solv HP scintillation fluid.
(§7) or the phospholipase A2 assay, compounds are prepared as 1 mg/ml stock solutions in MeOH and diluted appropriately in PBS. […]

[4] = molecular target: T1, porcine pancreatic PLA2; test: SMPLA2 assay: in vitro porcine pancreatic phospholipase A2, mixed micelle design, substrate 100 to 1000 μm; settings: for inhibition at 10 µg/mL: dose 10 μ/ml; for inhibition at 25 µg/mL: dose 25 μ/ml; for inhibition at 50 µg/mL: dose 50 μ/ml
Protocol: as §1, §2, §3, §4, §5, §6, §7

[5] = dose 25 μ/ml, subs. con. 10, read-out: % Inh.
[6] = dose 10 μ/ml, preincubation, read-out: % Inh.
[7] = dose 10 μ/ml, preincubation, read-out: % Inh. Avg.
[8] = dose 20 μ/ml, preincubation, read-out: % Inh.
[9] = preincubation, read-out: IC50 (converted)
[10] = dose 10 μ/ml, subs. con. 2, read-out: % Inh.
[11] = dose 20 μ/ml, subs. con. 2, read-out: % Inh.
[12] = dose 25 μ/ml, subs. con. 2, read-out: % Inh.
[13] = dose 25 μ/ml, subs. con. 2, read-out: % Inh. Avg.

inhibition at 25 µg/mL [1, 5] [%] | inhibition at 10 µg/mL [2, 6] [%] | inhibition at 10 µg/mL [2, 7] [%] | inhibition at 20 µg/mL [2, 8] [%] | IC50 [2, 9] [µM] | inhibition at 10 µg/mL [3, 10] [%] | inhibition at 20 µg/mL [3, 11] [%] | IC50 ([3]; subs. con. 2) [µM] | inhibition at 25 µg/mL [3, 12] [%] | SMILES | other results
24 | 65 | 69 | 88 | 9.54 | 24 | 62 | 37.2 | – | CCCCCCCCCCCCCCCCS(=O)(=O)CCCOP(=O)([O-])OCC[N+](C)(C)C [4-Hydroxy-N,N,N-trimethyl-3,5-dioxa-9-thia-4-phosphapentacosan-1-aminium, hydroxide, inner salt, 4.9.9-trioxide] | inhibition at 10 µg/mL ([1]; dose 10 μ/ml, subs. con. 10, read-out: % Inh.): 0%; inhibition at 20 µg/mL ([1]; dose 20 μ/ml): 19%; IC50 ([1]; subs. con. 10, read-out: IC50 (converted)): 121 µM
– | – | – | – | – | – | – | – | – | CCCCCCCCCCCCCCCCOCC(COP(=O)([O-])OCC[N+](C)(C)C)COP(=O)(Oc1ccccc1)Oc1ccccc1 (centres unmarked) [4-[(Hexadecyloxy)methyl]-7-hydroxy-N,N,N-trimethyl-1,1-diphenoxy-2.6.8 trioxa-1.7-diophosphadecan-10-aminium, hydroxide, inner salt, 1,7-dioxide] | % Inh. ([1]; dose 25 μ/ml): 33%; IC50 ([2]; IC50, preincubation): 6.59 µM; % Inh. ([2]; dose 10 μ/ml, preincubation): 75%; % Inh. ([2]; dose 20 μ/ml, preincubation): 85%; % Inh. ([3]; dose 25 μ/ml, subs. con. 2): 62% and 97%; % Inh. Avg. ([3]; dose 25 μ/ml, subs. con. 2): 79%
0 | 61 | – | 61 | 7.1 | – | – | – | 25 | CCCCCCCCCCCCCCCCOCC(COP(=O)([O-])OCC[N+](C)(C)C)CC(=O)C(=O)CCCCCCCCCCCCCCCC (centres unmarked) [7-(2,3-Dioxononadecyl)-4-hydroxy-N,N,N-trimethyl-3,5,9-trioxa-4-phosphapentacosan-1-aminium, hydroxide, inner salt, 4-oxide] | –
16 | 57 | – | 60 | 6.73 | – | – | – | 65 | CCCCCCCCCCCCCCCCC#CCC(COCCCCCCCCCCCCCCCC)COP(=O)([O-])OCC[N+](C)(C)C (centres unmarked) [7-(2-Nonadecynyl)-4-hydroxy-N,N,N-trimethyl-3,5,9-trioxa-4-phosphapentacosan-1-aminium, hydroxide, inner salt, 4-oxide] | –
19 | 9 | 57 | 82 | 2.99 | – | – | – | 80 | CCCCCCCCCCCCCCCCOCC(COP(=O)([O-])OCC[N+](C)(C)C)CS(=O)(=O)CCCCCCCCCCCCCCCC (centres unmarked) [7-[(Hexadecylsulfonyl)methyl]-4-hydroxy-N,N,N-trimethyl-3,5,9-trioxa-4-phosphapentacosan-1-aminium, hydroxide, inner salt, 4-oxide] | inhibition at 25 µg/mL [3, 13]: 72%
– | – | – | – | – | 82 | 82 | 1.81 | – | CCCCCCCCCCCCCCCCOCC(COP(=O)([O-])OCC[N+](C)(C)C)OC(=O)C(Br)CCCCCCCCCCCCCCCC (centres unmarked) [10-Bromo-7-[(hexadecyloxy)methyl]-4-hydroxy-N,N,N-trimethyl-9-oxo-3,5,8-trioxa-4-phosphahexacosan-1-aminium, hydroxide, inner salt, 4-oxide] | inhibition at 10 µg/mL ([1]; dose 10 μ/ml, subs. con. 10, read-out: % Inh. Avg.): 8%; inhibition at 25 µg/mL ([1]; dose 25 μ/ml, subs. con. 10, read-out: % Inh. Avg.): 10%; inhibition at 50 µg/mL ([1]; subs. con. 10, read-out: % Inh.): 37%; inhibition at 50 µg/mL ([1]; subs. con. 10, read-out: % Inh. Avg.): 137%; inhibition at 10 µg/mL ([4]; subs. con. 100): 8%; inhibition at 10 µg/mL ([4]; subs. con. 500): 0%; inhibition at 10 µg/mL ([4]; subs. con. 1000): 5%; inhibition at 25 µg/mL ([4]; subs. con. 100): 1%; inhibition at 25 µg/mL ([4]; subs. con. 500): 0%; inhibition at 25 µg/mL ([4]; subs. con. 1000): 10%; inhibition at 50 µg/mL ([4]; subs. con. 100): 18%; inhibition at 50 µg/mL ([4]; subs. con. 500): 8%; inhibition at 50 µg/mL ([4]; subs. con. 1000): 6%
35 | – | – | 24 | – | – | – | – | 93 | CCCCCCCCCCCCCCCCCC(=O)NCC(CO)COCCCCCCCCCCCCCCCC (centres unmarked) [N-[3-(Hexadecyloxy)-2-hydroxymethyl)propyl]octadecanamide] | inhibition at 25 µg/mL ([2]; dose 25 μ/ml, preincubation, read-out: % Inh.): 93%

SMILES | inhibition at 25 µg/mL [1, 5] [%] | inhibition at 10 µg/mL [2, 6] [%] | inhibition at 10 µg/mL [2, 7] [%] | inhibition at 20 µg/mL [2, 8] [%] | IC50 [2, 9] [µM] | inhibition at 10 µg/mL [3, 10] [%] | inhibition at 20 µg/mL [3, 11] [%] | IC50 ([3]; subs. con. 2) [µM] | inhibition at 25 µg/mL [3, 12] [%] | other results
CCCCCCCCCCCCCCCCOCC(COP(=O)([O-])OCC[N+](C)(C)C)CB(O)O (centres unmarked) [7-(Boronomethyl)-4-hydroxy-N,N,N-trimethyl-3,5,9-trioxa-4-phosphapentacosan-1-aminium, hydroxide, inner salt, 4-oxide] | 9 | 57 | – | 77 | 10.7 | – | – | – | – | inhibition at 25 µg/mL [3, 13]: 44%
CCCCCCCCCCCCCCCCOCC(COP(=O)([O-])OCC[N+](C)(C)C)CSCCCCCCCCCCCCCCCC (centres unmarked) [7-[(Hexadecylthio)methyl]-4-hydroxy-N,N,N-trimethyl-3,5,9-trioxa-4-phosphapentacosan-1-aminium, hydroxide, inner salt, 4-oxide] | 81 | – | 26 | 61 | 4.75 | 59 | 69 | 7.61 | 79 | % Inh. ([1]; dose 10 μ/ml): STIM; % Inh. ([1]; dose 20 μ/ml): STIM
CCCCCCCCCCCCCCCC[C@]1(COP(=O)([O-])OCC[N+](C)(C)C)CC(=O)N1 [(2R)-2-[[[(2-Hexadecyl-4-oxo-2-azetidinyl)methoxy]hydroxyphosphinyl]oxy]-N,N,N-trimethylethanaminium, hydroxide, inner salt] | 26 | 82 | – | 79 | 2.85 | – | – | – | – | % Inh. ([1]; dose 10 μ/ml): STIM; inhibition at 20 µg/mL ([1]; dose 20 μ/ml): 0%; % Inh. ([3]; dose 10 μ/ml, subs. con. 2): STIM; % Inh. ([3]; dose 20 μ/ml, subs. con. 2): STIM
